Results reported in PubChem BioAssay AID602446 (National Center for Advancing Translational Sciences (NCATS), 2012).

Tested on: Caco-2 permeability efflux ratio
Experiment: High Content Assay for Compounds that inhibit the Assembly of the Perinucleolar Compartment: Efflux Ratio
Source text: The perinucleolar compartment (PNC) is a non-membrane-bound nuclear subdomain that is associated with but structurally distinct from the nucleolus. The PNC is a heritable trait, in which the number of PNCs per cell in daughter cells often mimics that of their mother cells. The PNC is heterogeneous in shape, is stable through interphase, disassembles during mitosis, and reassembles in early G1. The PNC is concentrated with newly synthesized RNA polymerase III (pol III) RNAs (MRP RNA, RNAse P H1 RNA, hY RNAs[hY1, 2, 5], Alu RNA, and SRP [7SL] RNA) and RNA binding proteins (nucleolin, PTB, CUG-BP, KSRP, Raver1, Raver2, and Rod).
In collaboration between Sui Huang from Northwestern University and the NCGC, a high content assay was developed and screened. The hits were then tested in follow-up assays. High-content tumor cell migration assays in 3-dimensional extracellular matrices are powerful tools for modeling and understanding the biology of this critical step in the process of metastasis. However, most of the available methods are not amenable to the throughput required by studies of comparative pharmacology or small scale screening. […]
8. […] The T0, LY and T90, LY plates are read by FlexStation 3 at excitation of 485 nm and emission of 535 nm to determine LY permeability. […]

For `N=c1c2c(-c3ccccc3)c(-c3ccccc3)n(Cc3ccccc3)c2ncn1C1CCC(O)CC1` (stereo unspecified), which efflux ratio is on record?
Its efflux ratio is 11.
